Patent US9539349B2, “Formulation, apparatus and method for stabilizing radiopharmaceuticals” (Siemens Medical Solutions USA, Inc., priority 2010, dated 2017)
Like-named read-outs stand apart in the source and are kept apart here.

Experiments:
[1] = Radiochemical purity / percent stability of aged radiopharmaceutical solutions by radio-analytical HPLC; conditions: for RCP % 1.5 hrs post dispensing / RCP % 4 hrs post dispensing: FLT; for % stability 4.0 hr: [F-18]FLT 126.3 mCi/mL (text: 103 mCi/mL); for % stability 5.5 hr: [F-18]FLT 127 mCi/mL; for % stability 2.25 hr: [F-18]BMS 747158-02 12 mCi/mL, 10 vol. % EtOH:water; for % stability 3 hr: [F-18]HX4 16.2 mCi/mL
[2] = Hydrogen peroxide concentration by peroxide test strips; assay type: physicochemical
[3] = test system: proximal renal tubes in kidneys; conditions: dog, in vivo
[4] = test system: proximal renal tubes in kidneys; conditions: rat, in vivo
[5] = Excipient screen: protective factor (PF) for [F-18]FLT in argon sparged vials; conditions: in the absence of oxygen, in the presence of argon

Structure (SMILES): Cc1cn([C@H]2C[C@H]([18F])[C@@H](CO)O2)c(=O)[nH]c1=O [[F-18]FLT]
- stabilization by formulation ([1]; 8 vol. % EtOH:92 vol. % sodium phosphate (21 mM, pH=4.0-7.0) containing 0.01% (g/ml) maleic acid): very efficient at stabilizing
- RCP % 1.5 hrs post dispensing ([1]; Air-purged vial): 100%
- RCP % 4 hrs post dispensing ([1]; Air-purged vial): 100%
- RCP % 1.5 hrs post dispensing ([1]; Argon purged vial): 62.5%
- RCP % 4 hrs post dispensing ([1]; Argon purged vial): 38.5%
- oxygen in finished product vial headspace at which FLT stability is improved ([1]; Greer and Adelphi vials): > 10 vol. %
- radiochemical purity ([1]; [F-18]FLT 63.2 mCi/mL at EOS, dose vial sparged with Ar, after 1.5 hrs): 62.5%
- radiochemical purity ([1]; [F-18]FLT 63.2 mCi/mL at EOS, dose vial sparged with Ar, after 4.0 hrs): 38.57%
- radiochemical integrity ([1]; [F-18]FLT 63.2 mCi/mL at EOS, headspace of oxygen (syringe and sample vial), up to 4 hrs): remained radiochemically intact
- % stability 2 hr ([1]; [F-18]FLT 82 mCi/mL, 8 vol. % EtOH:phosphate, 0.01% (g/ml) maleic acid + Air headspace, rt): 100%
- % stability 3.25 hr ([1]; [F-18]FLT 118.7 mCi/mL, 8 vol. % EtOH:phosphate, maleic acid + Ar headspace): 37.9%
- % stability 4.0 hr ([1]; 8 vol. % EtOH:phosphate, Ar, no maleic acid): 1.5%
- % stability 4.0 hr ([1]; 8 vol. % EtOH:phosphate, maleic acid (0.1 mg/mL) and Ar): 88.7%
- % stability 5.5 hr ([1]; 8 vol. % EtOH:phosphate, syringe sample, O2 (no headspace), no maleic acid): 19.68%
- % stability 5.5 hr ([1]; 8 vol. % EtOH:phosphate, syringe sample, maleic acid + O2 (no headspace)): 97.13%
- % stability 5.5 hr ([1]; 8 vol. % EtOH:phosphate, vial, Air headspace, no maleic acid): ≥ 98%
- % stability 5.5 hr ([1]; 8 vol. % EtOH:phosphate, vial, maleic acid + Air headspace (rt)): ≥ 98%
- radiochemical integrity ([1]; [F-18]FLT 129.5 mCi/mL at EOS, control dose vial with headspace of oxygen): remained radiochemically intact
- radiochemical integrity ([1]; [F-18]FLT 129.5 mCi/mL at EOS, syringe with headspace of oxygen (20.95 vol. %)): remained radiochemically intact
- radiochemical purity ([1]; [F-18]FLT 129.5 mCi/mL at EOS, syringe without headspace of oxygen, after 2.6 hrs): 66.7%
- radiochemical purity ([1]; [F-18]FLT 129.5 mCi/mL at EOS, syringe without headspace of oxygen, after 3.8 hrs): 32.7%
- % stability 3.5 hr ([1]; [F-18]FLT 197.1 mCi/mL, 8 vol. % EtOH:phosphate, dose vial, air/O2 only): 82.6%
- stability (FIG. 2) ([1]; in the presence of argon without maleic acid): decomposes
- stability (FIG. 1) ([1]; in the presence of argon without oxygen): decomposes
- stability (FIG. 2) ([1]; in the presence of maleic acid in argon): stabilized
- stability (FIG. 1) ([1]; in the presence of oxygen): stabilized
- stability (FIG. 4) ([1]; in the presence of oxygen and maleic acid): further stabilized
- stability (FIG. 4) ([1]; in the presence of oxygen, once the oxygen is consumed): decomposes
- period of stability ([1]; oxygen and maleic acid formulation, in some instances): about 18 hours
- strength up to which samples did not contain radiolyzed products ([1]; samples spiked with O2): up to 197 mCi/mL
- hydrogen peroxide concentration ([2]; FLT sample 126.3 mCi/mL, containing maleic acid (argon)): 0 ppm
- hydrogen peroxide concentration ([2]; FLT sample 126.3 mCi/mL, headspace of argon): 0 ppm
- hydrogen peroxide concentration ([2]; FLT sample 127 mCi/mL, headspace of oxygen): 5 ppm
- hydrogen peroxide concentration ([2]; FLT sample 127 mCi/mL, headspace of oxygen and maleic acid): 0.5-2.0 ppm

Structure (SMILES): O=C(O)/C=C\C(=O)O [Maleic acid]
- predicted human dose equivalent for renal effect [3]: approximately 15 mg/kg
- predicted human dose equivalent for renal effect, total dose [3]: 1000 mg
- predicted human dose equivalent for renal effect [4]: approximately 12.3 mg/kg
- predicted human dose equivalent for renal effect, total dose [4]: 855 mg
- stabilization of [F-18]FLT against radiolysis [5]: highly stabilizing

Structure (SMILES): CC(C)(C)n1ncc(OCc2ccc(COCC[18F])cc2)c(Cl)c1=O [[F-18]BMS 747158-02]
- % stability 2.25 hr ([1]; Air/O2 (before sparge)): 91%
- % stability 2.25 hr ([1]; Argon (reformulated after sparge)): 12%

Structure (SMILES): O=[N+]([O-])c1nccn1Cc1cn(C(CO)C[18F])nn1 (centres unmarked) [[F-18]HX4]
- % stability 3 hr ([1]; 8 vol. % EtOH:phosphate (text: 10 vol. % EtOH:water), maleic acid + Argon): 8.66%
- % stability 3 hr ([1]; 8 vol. % EtOH:phosphate (text: 10 vol. % EtOH:water), maleic acid + O2): 98.9%
- % stability 3 hr ([1]; 8 vol. % EtOH:phosphate, Air (O2)): 94.06%
- % stability 3 hr ([1]; 8 vol. % EtOH:phosphate, Argon): 85.6%
- radiochemical integrity ([1]; [F-18]HX4 in 10 vol. % EtOH:water, headspace of oxygen, up to 4 hrs): remained radiochemically intact
- radiochemical purity ([1]; [F-18]HX4 in 10 vol. % EtOH:water, sparged with Ar, after 1 hrs): 0.28%
- radiochemical purity ([1]; [F-18]HX4 in 10 vol. % EtOH:water, sparged with Ar, after 4.0 hrs): 0%

Structure (SMILES): CC(C)[C@@H](C(=O)N[C@@H](Cc1ccc(OCC[18F])cc1)C(=O)O)n1cc(COc2ccc3nc(S(N)(=O)=O)sc3c2)nn1 [[F-18]VM4-037]
- radiolytic stability ([1]; oxygen introduced into the sample vials): not undergo radiolysis
- radiolytic stability ([1]; stored under an atmosphere of He): susceptible to radiolytical decomposition
